Source: the NIST ThermoML archive (doi:10.1016/j.jct.2012.06.030)

Test: excess molar enthalpy (molar enthalpy of mixing); xn = mol fraction of the nth substance listed
Conditions: 101 kPa, Liquid, isothermal titration calorimeter

CCCCCC[n+]1ccc2ccccc2c1.N#C[S-] [2-hexylisoquinolinium thiocyanate] + O
Conditions | excess molar enthalpy [kcal/mol]
298.15 K, x1 = 0.0916 | 0.0327
298.15 K, x1 = 0.0938 | 0.0335
298.15 K, x1 = 0.0961 | 0.0344
298.15 K, x1 = 0.0985 | 0.0351
298.15 K, x1 = 0.101 | 0.0361
298.15 K, x1 = 0.1036 | 0.0368
298.15 K, x1 = 0.1064 | 0.0378
298.15 K, x1 = 0.1093 | 0.0387
298.15 K, x1 = 0.1125 | 0.0399
298.15 K, x1 = 0.1157 | 0.0409
298.15 K, x1 = 0.1192 | 0.0421
298.15 K, x1 = 0.1229 | 0.0435
298.15 K, x1 = 0.1264 | 0.0445
298.15 K, x1 = 0.1301 | 0.0459
298.15 K, x1 = 0.134 | 0.0471
298.15 K, x1 = 0.1381 | 0.0485
298.15 K, x1 = 0.1426 | 0.0502
298.15 K, x1 = 0.1473 | 0.0516
298.15 K, x1 = 0.1523 | 0.0533
298.15 K, x1 = 0.1577 | 0.0552
298.15 K, x1 = 0.1635 | 0.0571
298.15 K, x1 = 0.1697 | 0.0593
298.15 K, x1 = 0.1764 | 0.0617
298.15 K, x1 = 0.1836 | 0.0641
298.15 K, x1 = 0.1915 | 0.0667
298.15 K, x1 = 0.2001 | 0.0696
298.15 K, x1 = 0.2095 | 0.0727
298.15 K, x1 = 0.2198 | 0.076
298.15 K, x1 = 0.2312 | 0.0798
298.15 K, x1 = 0.2439 | 0.0834
298.15 K, x1 = 0.258 | 0.0846
298.15 K, x1 = 0.2738 | 0.0832
298.15 K, x1 = 0.2917 | 0.077
298.15 K, x1 = 0.3095 | 0.0691
298.15 K, x1 = 0.3296 | 0.0581
298.15 K, x1 = 0.3525 | 0.0449
298.15 K, x1 = 0.3749 | 0.0325
298.15 K, x1 = 0.4002 | 0.0189
298.15 K, x1 = 0.424 | 0.00672
298.15 K, x1 = 0.4509 | -0.00614
298.15 K, x1 = 0.4749 | -0.0166
298.15 K, x1 = 0.5016 | -0.027
298.15 K, x1 = 0.5315 | -0.037
298.15 K, x1 = 0.5562 | -0.044
298.15 K, x1 = 0.5833 | -0.05
298.15 K, x1 = 0.6133 | -0.055
298.15 K, x1 = 0.6464 | -0.0586
298.15 K, x1 = 0.6834 | -0.0602
298.15 K, x1 = 0.7102 | -0.0598
298.15 K, x1 = 0.7393 | -0.0583
298.15 K, x1 = 0.7708 | -0.0552
298.15 K, x1 = 0.8051 | -0.0502
298.15 K, x1 = 0.8229 | -0.0471
298.15 K, x1 = 0.8415 | -0.0435
298.15 K, x1 = 0.861 | -0.039
298.15 K, x1 = 0.8815 | -0.0342
298.15 K, x1 = 0.9029 | -0.0287
298.15 K, x1 = 0.9253 | -0.0225
298.15 K, x1 = 0.949 | -0.0156
298.15 K, x1 = 0.9738 | -0.00798
303.15 K, x1 = 0.0899 | 0.0318
303.15 K, x1 = 0.092 | 0.0325
303.15 K, x1 = 0.0942 | 0.0332
303.15 K, x1 = 0.0965 | 0.0339
303.15 K, x1 = 0.099 | 0.0347
303.15 K, x1 = 0.1016 | 0.0356
303.15 K, x1 = 0.1043 | 0.0366
303.15 K, x1 = 0.1071 | 0.0373
303.15 K, x1 = 0.1102 | 0.0385
303.15 K, x1 = 0.1134 | 0.0394
303.15 K, x1 = 0.1168 | 0.0406
303.15 K, x1 = 0.1204 | 0.0418
303.15 K, x1 = 0.1238 | 0.0428
303.15 K, x1 = 0.1274 | 0.044
303.15 K, x1 = 0.1312 | 0.0452
303.15 K, x1 = 0.1352 | 0.0466
303.15 K, x1 = 0.1395 | 0.048
303.15 K, x1 = 0.1441 | 0.0495
303.15 K, x1 = 0.1489 | 0.0511
303.15 K, x1 = 0.1542 | 0.0528
303.15 K, x1 = 0.1598 | 0.0547
303.15 K, x1 = 0.1658 | 0.0566
303.15 K, x1 = 0.1723 | 0.0588
303.15 K, x1 = 0.1793 | 0.0612
303.15 K, x1 = 0.187 | 0.0636
303.15 K, x1 = 0.1953 | 0.0664
303.15 K, x1 = 0.2044 | 0.0693
303.15 K, x1 = 0.2144 | 0.0727
303.15 K, x1 = 0.2254 | 0.0748
303.15 K, x1 = 0.2375 | 0.0779
